What was measured:
CaSR = details: ref Ohsu et al., 2010; cited from earlier work
hTAS1R1 H71L/rTAS1R3 = molecular target: T1, hTAS1R1 H71L/rTAS1R3 (Homo sapiens, UniProt Q7RTX1, H71L); test: Calcium assay, hTAS1R1 mutant co-expressed with rTAS1R3; type: cell-based, rat
T1 construct: expressed in transfected cells; host or cells: HEK293T/17 (ATCC CRL-11268)
T1 sequence (Q7RTX1 21-841 H71L): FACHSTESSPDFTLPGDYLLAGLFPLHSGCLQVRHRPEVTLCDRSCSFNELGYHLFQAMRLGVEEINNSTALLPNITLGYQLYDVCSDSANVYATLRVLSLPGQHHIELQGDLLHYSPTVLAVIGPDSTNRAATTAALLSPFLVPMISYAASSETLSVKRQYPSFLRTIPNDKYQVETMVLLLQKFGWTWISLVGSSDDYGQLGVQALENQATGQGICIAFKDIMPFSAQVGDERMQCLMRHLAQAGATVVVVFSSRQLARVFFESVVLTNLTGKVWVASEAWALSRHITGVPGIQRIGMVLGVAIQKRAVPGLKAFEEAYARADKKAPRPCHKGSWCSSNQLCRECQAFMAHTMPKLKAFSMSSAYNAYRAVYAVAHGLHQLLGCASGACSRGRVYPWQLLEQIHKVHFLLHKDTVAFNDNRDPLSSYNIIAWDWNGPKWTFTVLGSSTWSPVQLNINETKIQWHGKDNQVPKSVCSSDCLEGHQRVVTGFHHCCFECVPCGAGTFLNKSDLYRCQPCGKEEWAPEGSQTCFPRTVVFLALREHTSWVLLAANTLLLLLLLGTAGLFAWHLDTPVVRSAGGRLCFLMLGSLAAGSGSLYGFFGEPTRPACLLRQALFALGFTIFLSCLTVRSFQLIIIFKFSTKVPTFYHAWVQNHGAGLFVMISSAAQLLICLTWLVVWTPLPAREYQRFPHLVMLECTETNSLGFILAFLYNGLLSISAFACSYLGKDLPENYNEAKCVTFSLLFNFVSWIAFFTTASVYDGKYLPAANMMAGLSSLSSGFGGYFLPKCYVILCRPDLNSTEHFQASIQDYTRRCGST
T1 sequence (Q923K1 21-858 partner): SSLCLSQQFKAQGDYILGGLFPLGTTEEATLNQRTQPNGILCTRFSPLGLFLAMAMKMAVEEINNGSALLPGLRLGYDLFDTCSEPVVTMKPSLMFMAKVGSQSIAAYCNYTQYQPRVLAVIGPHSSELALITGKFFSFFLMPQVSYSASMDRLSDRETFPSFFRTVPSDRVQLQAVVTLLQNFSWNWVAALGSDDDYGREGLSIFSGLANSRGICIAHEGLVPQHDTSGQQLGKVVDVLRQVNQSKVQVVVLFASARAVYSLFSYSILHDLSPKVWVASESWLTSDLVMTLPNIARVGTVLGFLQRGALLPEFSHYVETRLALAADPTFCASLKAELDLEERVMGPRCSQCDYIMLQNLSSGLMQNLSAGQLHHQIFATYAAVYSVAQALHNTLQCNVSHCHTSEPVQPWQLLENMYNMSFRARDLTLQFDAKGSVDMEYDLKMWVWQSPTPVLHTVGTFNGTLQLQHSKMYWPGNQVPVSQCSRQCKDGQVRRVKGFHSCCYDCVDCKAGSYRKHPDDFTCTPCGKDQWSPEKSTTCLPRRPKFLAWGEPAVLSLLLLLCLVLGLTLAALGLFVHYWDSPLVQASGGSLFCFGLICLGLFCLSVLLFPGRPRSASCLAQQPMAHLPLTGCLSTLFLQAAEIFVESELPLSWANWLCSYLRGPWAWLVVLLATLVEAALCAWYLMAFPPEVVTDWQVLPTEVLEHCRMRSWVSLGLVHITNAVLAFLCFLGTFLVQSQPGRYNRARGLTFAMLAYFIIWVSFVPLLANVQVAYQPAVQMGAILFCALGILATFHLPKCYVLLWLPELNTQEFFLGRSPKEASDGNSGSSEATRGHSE

hTAS1R3 = hTAS1R3 (Homo sapiens, UniProt Q7RTX0); details: GSH alone; Fig. 5B
hTAS1R3, sequence (Q7RTX0 21-852): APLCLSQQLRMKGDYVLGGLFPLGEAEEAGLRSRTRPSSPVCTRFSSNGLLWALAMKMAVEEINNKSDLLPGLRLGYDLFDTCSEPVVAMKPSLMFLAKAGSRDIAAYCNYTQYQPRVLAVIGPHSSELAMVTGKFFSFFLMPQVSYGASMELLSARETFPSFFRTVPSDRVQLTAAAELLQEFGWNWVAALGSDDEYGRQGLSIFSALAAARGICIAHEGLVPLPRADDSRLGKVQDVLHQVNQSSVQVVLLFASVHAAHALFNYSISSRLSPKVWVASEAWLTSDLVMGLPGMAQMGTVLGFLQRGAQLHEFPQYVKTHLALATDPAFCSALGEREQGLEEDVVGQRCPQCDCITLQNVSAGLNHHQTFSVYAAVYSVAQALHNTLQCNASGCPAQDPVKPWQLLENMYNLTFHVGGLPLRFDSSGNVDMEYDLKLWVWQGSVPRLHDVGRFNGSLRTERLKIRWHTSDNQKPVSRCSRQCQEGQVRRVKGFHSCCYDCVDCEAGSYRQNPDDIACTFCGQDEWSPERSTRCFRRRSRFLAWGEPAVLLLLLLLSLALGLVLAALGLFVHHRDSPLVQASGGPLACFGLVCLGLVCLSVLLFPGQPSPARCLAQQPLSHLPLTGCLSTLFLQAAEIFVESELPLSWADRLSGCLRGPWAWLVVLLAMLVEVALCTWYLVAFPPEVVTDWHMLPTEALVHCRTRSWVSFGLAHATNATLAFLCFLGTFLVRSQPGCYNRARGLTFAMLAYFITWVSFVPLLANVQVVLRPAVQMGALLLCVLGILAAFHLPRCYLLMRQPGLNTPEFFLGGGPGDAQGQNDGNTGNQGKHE
Protocol: (§1) HEK293T/17 cells (ATCC CRL-11268) were seeded into clear bottom black 96-well plates coated with poly-D-lysine at a density of 32500 cells/well in 100 μL of DMEM containing 4.5 g/L glucose and supplemented with penicillin/streptomycin, 2 mM GlutaMAX and 10 % dialyzed fetal bovine serum. The plates were incubated for 24 h at 37 °C and 7.3 % CO2 in a humidified atmosphere. After incubation, using Fugene® 4 K (0.46 μL/well, Promega, Illkirch, France), the cells were transiently transfected with pcDNA3-hTAS1R1-WT (60 ng/well) or TAS1R1 mutants, pcDNA4-rTAS1R3 (60 ng/well), pcDNA3-Gα15i2 (10 ng/well), and pGP-CMV-GCaMP6s (Addgene #40753; 10 ng/well) as a genetically encoded calcium indicator. […] After 20 s of basal fluorescence calcium measurement, the cells were stimulated via automatic injection of a range of compounds in eight wells, and the signal emission was recorded for an additional 70 s, via a FlexStation 3® fluorometric microplate reader (Molecular Devices, San Jose, CA, USA). […] The emitted fluorescence was measured at a wavelength of 510 nm after excitation at 488 nm. […] For each well, the decrease in the raw fluorescence as the relative fluorescence changed was calculated as ΔF/F0. Replicates were averaged for the wells subjected to the same stimuli, the background signal was subtracted, and the fluorescence changes in mock-transfected cells were subtracted. […]

hTAS1R1 D192E/rTAS1R3 = molecular target: T2, hTAS1R1 D192E/rTAS1R3 (UniProt Q7RTX1+Q923K1, D192E); test: cell-based; design: species or system human, rat
T2 construct: The cDNA coding region of rTAS1R3 was synthesized with optimized-codon usage for human expression; expressed in transfected cells; host or cells: HEK293T/17
T2 sequence (Q7RTX1 21-841 D192E, one chain of several): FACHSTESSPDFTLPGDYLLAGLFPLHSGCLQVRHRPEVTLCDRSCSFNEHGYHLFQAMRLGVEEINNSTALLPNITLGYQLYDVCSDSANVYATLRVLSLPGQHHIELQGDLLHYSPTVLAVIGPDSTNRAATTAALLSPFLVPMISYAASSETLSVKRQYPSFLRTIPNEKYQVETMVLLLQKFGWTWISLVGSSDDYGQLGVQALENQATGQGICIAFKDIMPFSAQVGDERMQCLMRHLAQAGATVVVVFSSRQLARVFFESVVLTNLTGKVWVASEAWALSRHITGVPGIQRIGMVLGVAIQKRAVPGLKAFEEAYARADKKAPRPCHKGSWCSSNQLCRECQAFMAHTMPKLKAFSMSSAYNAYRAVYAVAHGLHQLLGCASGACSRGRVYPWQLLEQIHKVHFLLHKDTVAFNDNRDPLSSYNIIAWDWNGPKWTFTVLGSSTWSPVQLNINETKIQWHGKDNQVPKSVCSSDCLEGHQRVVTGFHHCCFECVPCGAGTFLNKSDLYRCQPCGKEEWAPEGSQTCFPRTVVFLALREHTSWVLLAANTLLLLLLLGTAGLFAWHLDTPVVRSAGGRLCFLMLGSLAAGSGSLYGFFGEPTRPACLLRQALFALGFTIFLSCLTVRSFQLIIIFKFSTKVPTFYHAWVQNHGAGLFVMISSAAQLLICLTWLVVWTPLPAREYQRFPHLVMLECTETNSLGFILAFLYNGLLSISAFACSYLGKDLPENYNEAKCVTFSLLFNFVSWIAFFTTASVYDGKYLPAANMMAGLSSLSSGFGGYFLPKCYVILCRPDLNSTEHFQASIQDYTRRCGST
Excerpt: Chimeric Gα proteins, such as Gα16Gust44, Gα16Gi3 or Gα15i2, are widely used in the functional expression of TAS1R receptors ([Backes et al., 2015]; [Suess et al., 2015]; [Toda et al., 2021], [Toda et al., 2013], [Toda et al., 2018]; [Zhang et al., 2008]). Chimeric Gα15i2 (([Toda et al., 2013]), Supplementary data) was generated by replacing the last five residues of the C-terminal tail of rat Gα15i2 (EINLL) (UniProt number G3V6N8; https://www.uniprot.org/uniprot/) with the counterpart sequence from human GNAI2 (DCGLF) (UniProt number P04899-1) and cloning into the pcDNA3.1/Hygro vector (Invitrogen, Thermo Fisher Scientific, Illkirch, France) between the HindIII and NotI restriction sites, resulting in the plasmid pcDNA3.1-Gα15i2. Chimeric Gα16Gust44 construct have already been reported ([Raliou et al., 2011]). Briefly, Gα16Gust44 was generated by replacing the C-terminal of Gα16 with the C-terminal 44 residues of gustducin. As previously described, hTAS1R1 was amplified from human fungiform papillae cDNA and cloned and inserted into pcDNA3 (Invitrogen), generating pcDNA3-TAS1R1-WT (wild-type) ([Raliou et al., 2011]). […]

rTAS1R3 = rTAS1R3 (Rattus norvegicus, UniProt Q923K1); details: GSH alone; Fig. 5C
Protocol: as §1

N[C@@H](CCC(=O)N[C@@H](CS)C(=O)NCC(=O)O)C(=O)O [GSH, γ-L-glutamyl-L-cysteinyl-glycine]
EC50 (CaSR): 710 nM
EC50 (hTAS1R1 H71L/rTAS1R3): 2.27 ± 0.123 mM
response to the agonist alone, vs WT (hTAS1R1 H71L/rTAS1R3; H71L): significantly increased the initial amplitude
Max ∆F/F0 (hTAS1R1 H71L/rTAS1R3; H71L, GSH): 1.24 ± 0.0
R1 = mutant EC50/WT EC50 (hTAS1R1 H71L/rTAS1R3; H71L, GSH): 0.9
response of transfected cells (hTAS1R3): did not respond
EC50 (hTAS1R1 D192E/rTAS1R3): > 30 mM
response of transfected cells (rTAS1R3): did not respond

— PMC12615753, “Glutathione as a taste modulator: molecular mechanisms of interaction with umami and sweet taste receptors” (Food Chemistry: Molecular Sciences, 2025)
